Bounds are passed on as bounds.

Chain of hMC2 receptor (Q01718 whole entry): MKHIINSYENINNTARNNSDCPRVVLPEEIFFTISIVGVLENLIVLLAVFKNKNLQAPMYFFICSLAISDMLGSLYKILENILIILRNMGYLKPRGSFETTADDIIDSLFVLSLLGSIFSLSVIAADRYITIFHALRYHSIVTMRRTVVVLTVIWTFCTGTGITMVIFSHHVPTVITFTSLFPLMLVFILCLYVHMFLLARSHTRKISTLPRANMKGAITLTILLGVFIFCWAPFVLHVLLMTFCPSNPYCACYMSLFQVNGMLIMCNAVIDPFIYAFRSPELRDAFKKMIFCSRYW
Chain of hMC2 receptor (Q8TCY5 whole entry partner): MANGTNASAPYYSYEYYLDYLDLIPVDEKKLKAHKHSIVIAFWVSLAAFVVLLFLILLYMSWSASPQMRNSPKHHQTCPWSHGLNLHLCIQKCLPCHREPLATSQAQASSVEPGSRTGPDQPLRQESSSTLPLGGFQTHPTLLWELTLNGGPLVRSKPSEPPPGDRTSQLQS

The assay addresses hMC2 receptor (Homo sapiens, UniProt Q01718). In words: hMC2 membrane binding assay ([125I]ACTH (1-39) Tyr23, SPA). More on the design: scale not given here. The settings on record: crude hMC2R membranes from CRE-bla-CHO-K1 cells expressing hMC2 receptor and hMRAP; [125I]ACTH (1-39) Tyr23 0.2 nM; 1.5 hours at room temperature; read-out: MC2R binding potency. In outline: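 CRE-bla-CHO-K1 membranes co-expressing hMC2 receptor and hMRAP, preincubated with WGA PVT SPA beads in pH 7.4 HEPES/MgCl2/CaCl2/0.2% BSA buffer. Compounds (typically 0–10,000 nM final) compete with 0.2 nM [125I]ACTH(1-39) Tyr23 for 1.5 h at room temperature. SPA counts give Ki by non-linear regression.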
In the case of `CCOc1ncccc1-c1ccc(N2CCN(C(=O)N3CCc4cccc(C(F)(F)F)c43)C[C@H]2CC)c(C(=O)NC2CN(C)C2)n1` [Compound 1-418, 2′-ethoxy-5-[(2R)-2-ethyl-4-[7-(trifluoromethyl)-2,3-dihydro-1H-indole-1-carbonyl]piperazin-1-yl]-N-(1-methylazetidin-3-yl)-[2,3′-bipyridine]-6-carboxamide], the Ki is less than 10 nM.

For the compound `CCOc1ccccc1-c1ccc(N2CCN(C(=O)c3ccc(F)cc3C(F)F)C[C@H]2CC)c(C(=O)N[C@@H]2CCN(C)C2)n1` [Compound 1-293, 3-[(2R)-4-[2-(difluoromethyl)-4-fluorobenzoyl]-2-ethylpiperazin-1-yl]-6-(2-ethoxyphenyl)-N-[(3R)-1-methylpyrrolidin-3-yl]pyridine-2-carboxamide], the Ki was less than 10 nM.

With `CCOc1ncccc1-c1ccc(N2CCN(C(=O)c3ccc(Cl)cc3C(F)F)C[C@H]2CC)c(C(=O)NCCNC)c1F` [Compound 1-183, 6-[(2R)-4-[4-chloro-2-(difluoromethyl)benzoyl]-2-ethylpiperazin-1-yl]-3-(2-ethoxypyridin-3-yl)-2-fluoro-N-[2-(methylamino)ethyl]benzamide], the Ki is less than 10 nM.

As for `CCOc1ncccc1-c1ccc(N2CCN(C(=O)c3ccc(F)cc3Cl)C[C@H]2CC)c(C(=O)N[C@@H]2CCNC2)c1` [Compound 1-82, 2-[(2R)-4-(2-chloro-4-fluorobenzoyl)-2-ethylpiperazin-1-yl]-5-(2-ethoxypyridin-3-yl)-N-[(3R)-pyrrolidin-3-yl]benzamide], the Ki is less than 10 nM.

Take `CCOc1ncccc1-c1ccc(N2CCN(C(=O)c3ccc(F)cc3C(F)(F)F)C[C@H]2CC)c(C(=O)NCC2=NCCN2)c1F` [Compound 1-182, N-[(4,5-dihydro-1H-imidazol-2-yl)methyl]-3-(2-ethoxypyridin-3-yl)-6-[(2R)-2-ethyl-4-[4-fluoro-2-(trifluoromethyl)benzoyl]piperazin-1-yl]-2-fluorobenzamide]: the Ki is less than 10 nM.

Consider `CCOc1ncccc1-c1ccc(N2CCN(C(=O)[C@H]3CC[C@@H](C(F)(F)F)CC3)C[C@H]2CC)c(C(=O)N[C@@H]2CCNC2)n1` [Compound 1-299, 2′-ethoxy-5-[(2R)-2-ethyl-4-[cis-4-(trifluoromethyl)cyclohexanecarbonyl]piperazin-1-yl]-N-[(3R)-pyrrolidin-3-yl]-[2,3′-bipyridine]-6-carboxamide], for which the Ki is less than 10 nM.

As to `CCOc1ncccc1-c1ccc(N2CCN(C(=O)C3(c4ccccc4)CCC3)C[C@H]2CC)c(C(=O)N[C@@H]2CCN(C)C2)n1` [Compound 1-358, 2′-ethoxy-5-[(2R)-2-ethyl-4-(1-phenylcyclobutanecarbonyl)piperazin-1-yl]-N-[(3R)-1-methylpyrrolidin-3-yl]-[2,3′-bipyridine]-6-carboxamide], the Ki is less than 10 nM.

Regarding `CCOc1ncccc1-c1ccc(N2CCN(C(=O)c3ccc(Cl)cc3C(F)(F)F)C[C@H]2CC)c(C(=O)NCCN2CCCC2)c1` [Compound 1-49, 2-[(2R)-4-[4-chloro-2-(trifluoromethyl)benzoyl]-2-ethylpiperazin-1-yl]-5-(2-ethoxypyridin-3-yl)-N-[2-(pyrrolidin-1-yl)ethyl]benzamide], the Ki is less than 10 nM.

`CCOc1ncccc1-c1ccc(N2CCN(C(=O)C3(C(F)(F)F)CCCC3)C[C@H]2CC)c(C(=O)NCC2=NCCN2C)n1` [Compound 1-415, 2′-ethoxy-5-[(2R)-2-ethyl-4-[1-(trifluoromethyl)cyclopentanecarbonyl]piperazin-1-yl]-N-[(1-methyl-4,5-dihydro-1H-imidazol-2-yl)methyl]-[2,3′-bipyridine]-6-carboxamide]: the Ki is less than 10 nM.

`CCOc1ncccc1-c1ccc(N2CCN(C(=O)c3ccc(NC)nc3C(F)(F)F)C[C@H]2CC)c(C(=O)NCCNC)c1F` [Compound 1-163, 3-(2-ethoxypyridin-3-yl)-6-[(2R)-2-ethyl-4-[6-(methylamino)-2-(trifluoromethyl)pyridine-3-carbonyl]piperazin-1-yl]-2-fluoro-N-[2-(methylamino)ethyl]benzamide]: the Ki is less than 10 nM.

Values taken from patent publication US10981894B2, “Melanocortin subtype-2 receptor (MC2R) antagonists and uses thereof” (Crinetics Pharmaceuticals, Inc., priority 2018, dated 2021).
